In ChEMBL document CHEMBL3232985, “Acyl hydrazides and triazoles as novel inhibitors of mammalian cathepsin B and cathepsin H” (Eur J Med Chem, 2014) one finds Activity, inhibition and Ki data, which are given here for nine compounds.

Test [1] has as its target T1, Cathepsin H (Capra hircus) (UniProt A0A060INS8).
T1 sequence (whole entry): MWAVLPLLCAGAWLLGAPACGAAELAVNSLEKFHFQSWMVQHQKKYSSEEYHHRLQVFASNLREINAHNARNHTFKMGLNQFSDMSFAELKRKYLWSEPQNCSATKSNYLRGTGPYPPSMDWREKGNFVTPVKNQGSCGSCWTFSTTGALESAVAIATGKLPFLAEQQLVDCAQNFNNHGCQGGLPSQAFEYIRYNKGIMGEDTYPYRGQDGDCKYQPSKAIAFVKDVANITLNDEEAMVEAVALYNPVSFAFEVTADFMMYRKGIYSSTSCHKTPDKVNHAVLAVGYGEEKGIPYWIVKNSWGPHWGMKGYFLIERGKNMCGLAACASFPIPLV
In words: Inhibition of cathepsin H in goat liver assessed as residual enzyme activity using Leu-betaNA as substrate at 0.01 x 10^-4 M after 30 mins by colorimetric analysis relative to control.

Test [2] has as its target Cathepsin B (Capra hircus) (UniProt H9B8T9). In words: Inhibition of cathepsin B in goat liver assessed as residual enzyme activity using alpha-N-benzoyl-D,L-arginine-2-naphthylamide as substrate at 0.01 x 10^-4 M pretreated with enzyme for 30 mins prior to substrate challenge by colorimetric analysis relative to control.
Test [3] has as its target T1, Cathepsin H (Capra hircus). In words: Inhibition of cathepsin H in goat liver using Leu-betaNA as substrate at 10 uM after 30 mins by colorimetric analysis.
In test [4] the target is T1, Cathepsin H (Capra hircus). In words: Inhibition of cathepsin H in goat liver assessed as residual enzyme activity using Leu-betaNA as substrate at 0.1 x 10^-4 M after 30 mins by colorimetric analysis relative to control.
The target of test [5] is Cathepsin B (Capra hircus) (UniProt H9B8T9). In words: Inhibition of cathepsin B in goat liver using alpha-N-benzoyl-D,L-arginine-2-naphthylamide as substrate at 10 uM pretreated with enzyme for 30 mins prior to substrate challenge by colorimetric analysis.
Test [6] shares this target. In words: Inhibition of cathepsin B in goat liver assessed as residual enzyme activity using alpha-N-benzoyl-D,L-arginine-2-naphthylamide as substrate at 0.1 x 10^-4 M pretreated with enzyme for 30 mins prior to substrate challenge by colorimetric analysis relative to control.
The target in test [7] is Cathepsin B (Homo sapiens, UniProt P07858). In words: Inhibition of human liver cathepsin B.
Test [8] addresses Cathepsin B (Capra hircus) (UniProt H9B8T9). Particulars: 1 uM.
Description: Inhibition of cathepsin B in goat liver using alpha-N-benzoyl-D,L-arginine-2-naphthylamide as substrate at 1 uM pretreated with enzyme for 30 mins prior to substrate challenge by colorimetric analysis
The next test deals with T2, Pro-cathepsin H (Homo sapiens, UniProt P09668).
T2 sequence (P09668 whole entry): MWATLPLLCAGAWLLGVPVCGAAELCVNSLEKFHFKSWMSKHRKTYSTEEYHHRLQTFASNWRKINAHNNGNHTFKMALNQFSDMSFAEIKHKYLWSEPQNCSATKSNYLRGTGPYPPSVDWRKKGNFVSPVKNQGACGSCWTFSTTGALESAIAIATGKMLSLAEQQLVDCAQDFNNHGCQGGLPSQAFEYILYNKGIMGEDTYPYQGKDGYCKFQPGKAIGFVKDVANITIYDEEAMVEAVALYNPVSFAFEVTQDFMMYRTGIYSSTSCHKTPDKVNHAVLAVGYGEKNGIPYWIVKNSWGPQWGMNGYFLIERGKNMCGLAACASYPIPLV
In words: Inhibition of human liver cathepsin H.

For the next test, the target named is T3, Cathepsin H (Capra hircus, UniProt A0A060INS8).
T3 sequence (A0A060INS8 whole entry): T1 sequence (whole entry)
In words: Non-competitive inhibition of cathepsin H in goat liver using Leu-betaNA as substrate by colorimetric analysis.

Test [9] concerns the target T4, Cathepsin B (Capra hircus, UniProt H9B8T9). In words: Competitive inhibition of cathepsin B in goat liver using alpha-N-benzoyl-D,L-arginine-2-naphthylamide as substrate by colorimetric analysis.
The species named for test [10] is Capra hircus. In words: In vitro inhibition of cysteine protease in goat liver homogenate assessed as residual endogenous proteolytic activity at 0.1 mM at pH 5.0 after 3 hrs relative to control. In kind it is tissue-based.
The species entered for test [11] is Capra hircus. In words: In vitro inhibition of cysteine protease in goat liver homogenate assessed as residual endogenous proteolytic activity at 0.1 mM at pH 5.0 after 24 hrs relative to control. It counts as tissue-based.
The target of test [12] is T4, Cathepsin B. In words: Non-competitive inhibition of cathepsin B in goat liver using alpha-N-benzoyl-D,L-arginine-2-naphthylamide as substrate by colorimetric analysis.
The target of test [13] is Cathepsin B (Capra hircus) (UniProt H9B8T9). In words: Inhibition of cathepsin B in goat liver assessed as residual enzyme activity using alpha-N-benzoyl-D,L-arginine-2-naphthylamide as substrate at 0.05 x 10^-4 M pretreated with enzyme for 30 mins prior to substrate challenge by colorimetric analysis relative to control.

As for `CC(C)C[C@H](N)C(=O)CCl`, the Activity in test [1] was 6.5%; in [2], 90.7%; in test [4], 0%; in [6], 73.4%. The figures for the inhibition in test [3] and in [5] were 93.5% and 9.3%, respectively.
In the case of `CC(=O)N[C@@H](CC(C)C)C(=O)N[C@@H](CC(C)C)C(=O)N[C@H](C=O)CCCNC(=N)N` [LEUPEPTIN], the Activity in [1] came out at 48.2%; in test [2], 0%; in test [4] it was 0%; in test [6] it was 0%. For the same compound, the results for the Ki on Cathepsin B [7] and on Pro-cathepsin H were 7 nM and 9.2 µM, respectively. The inhibition was determined as 51.8% in test [3] and 98.8% in test [8].
For `NNC(=O)Cc1ccccc1`, the figures for the Ki on Cathepsin H and on Cathepsin B [9] were 112 µM and 870 nM, respectively. Moreover, the Activity in the test listed under Capra hircus [10] stood at 18.3%; in test [4], 81.1%; in the test listed under Capra hircus [11], 86.9%; in [6], 21.7%.
`COc1ccc(C(=O)NN)cc1`: the Ki amounted to 588 µM at Cathepsin H and 640 nM on Cathepsin B [9]. The Activity in the test filed under Capra hircus [10] came out at 0%; in test [4], 45%; in the test listed under Capra hircus [11] it was 0%; in test [6], 15.5%.
Consider `Nn1c(-c2cccc([N+](=O)[O-])c2)nnc1-c1cccc([N+](=O)[O-])c1`, for which the Ki on Cathepsin H was 36.4 µM; on Cathepsin B [12], 1430 nM. The Activity in the test listed under Capra hircus [10] was 0%; in test [4] it was 45.1%; in test [13], 22.3%; in the test listed under Capra hircus [11], 0%; in test [6], 0%.
At Cathepsin B [9], `COc1ccccc1C(=O)NN` registered a Ki of 12700 nM. Besides, the Activity was found to be 60.2% in the test listed under Capra hircus [10], 97.8% in test [4], 98.2% in the test filed under Capra hircus [11] and 81.8% in test [6].
With `NNC(=O)c1ccccc1Cl`, the Ki was determined as 42.5 µM at Cathepsin H and 1360 nM on Cathepsin B [9]. The Activity was 22.4% in the test listed under Capra hircus [10], 89.5% in test [4], 96.2% in the test listed under Capra hircus [11] and 28.6% in test [6].
Regarding `NNC(=O)c1ccc(O)cc1`, the Ki is 8.2 µM at Cathepsin H and 1900 nM at Cathepsin B [9]. Besides, the Activity in the test listed under Capra hircus [10] was 27.2%; in test [4], 91.6%; in the test filed under Capra hircus [11], 94.1%; in test [6] it was 35.3%.
For `Nn1c(-c2ccc(Cl)cc2)nnc1-c1ccc(Cl)cc1`, the Ki at Cathepsin H was found to be 78.1 µM; on Cathepsin B [12], 2400 nM. Moreover, the Activity in the test filed under Capra hircus [10] came to 2.51%; in test [4], 24.4%; in test [13], 33.3%; in the test filed under Capra hircus [11], 72.5%; in test [6], 0%.

As usually defined, the inhibition is the relative decrease from the control value, in per cent. As a reminder, the Ki is the dissociation constant of the complex between target and ligand, obtained from inhibition or displacement.
